{
  "source": "paper PMC4129416",
  "about": "“YLT192, a Novel, Orally Active Bioavailable Inhibitor of VEGFR2 Signaling with Potent Antiangiogenic Activity and Antitumor Efficacy in Preclinical Models” (Scientific Reports, 2014)",
  "key": {"[1]": {"test_system": "HCT116 cells", "experiment": "Annexin V/propidium iodide apoptosis assay, flow cytometry", "assay_type": "cell-based, human", "details": "48 hours; annexin V-FITC and PI staining; concentration-dependent", "method": "Figure 4 Inhibitory effects of YLT192 on tumor cells. (A) YLT192 inhibited U251 and HCT116 cells proliferation. The EdU incorporation assay was conducted on U251 and HCT116 cells after treated with YLT192 for 24 hours. The EdU-positive (red fluorescent staining) cells and Hoechst staining (blue fluorescent staining) cells represented proliferating and total cells in the fluorescent images, respectively (100×). Quantification was shown on the right panels. (B) YLT192 induced apoptosis of HCT116 cells. HCT116 cells were treated with YLT192 or vehicle for 48 hours followed by flow cytometric analysis of annexin V-FITC and PI staining. The proportion of early apoptotic cells (annexin V positive) and late apoptotic cells (annexin V and PI positive cells) were shown. Typical apoptosis-related proteins caspase 3 and Bax were detected by western blot. Each has the expression of β-actin as internal control. The full size blots were shown in the Supplemental Figure S6 online. For (A) and (B), one representative experiment of three is shown. Data are means ± SEM, *P < 0.05, **P < 0.01. (C) YLT192 inhibited oncogenic signaling pathways in tumor cells in vitro. U251 and HCT116 cells were treated with YLT192 or vehicle for 48 hours and the expression of protein in different signaling pathways were detected by western blot with specific antibodies. Blots are representative of three experiments. […]"}, "[2]": {"target": "VEGFR2 (Homo sapiens, UniProt P35968)", "sequence (P35968 20-1356)": "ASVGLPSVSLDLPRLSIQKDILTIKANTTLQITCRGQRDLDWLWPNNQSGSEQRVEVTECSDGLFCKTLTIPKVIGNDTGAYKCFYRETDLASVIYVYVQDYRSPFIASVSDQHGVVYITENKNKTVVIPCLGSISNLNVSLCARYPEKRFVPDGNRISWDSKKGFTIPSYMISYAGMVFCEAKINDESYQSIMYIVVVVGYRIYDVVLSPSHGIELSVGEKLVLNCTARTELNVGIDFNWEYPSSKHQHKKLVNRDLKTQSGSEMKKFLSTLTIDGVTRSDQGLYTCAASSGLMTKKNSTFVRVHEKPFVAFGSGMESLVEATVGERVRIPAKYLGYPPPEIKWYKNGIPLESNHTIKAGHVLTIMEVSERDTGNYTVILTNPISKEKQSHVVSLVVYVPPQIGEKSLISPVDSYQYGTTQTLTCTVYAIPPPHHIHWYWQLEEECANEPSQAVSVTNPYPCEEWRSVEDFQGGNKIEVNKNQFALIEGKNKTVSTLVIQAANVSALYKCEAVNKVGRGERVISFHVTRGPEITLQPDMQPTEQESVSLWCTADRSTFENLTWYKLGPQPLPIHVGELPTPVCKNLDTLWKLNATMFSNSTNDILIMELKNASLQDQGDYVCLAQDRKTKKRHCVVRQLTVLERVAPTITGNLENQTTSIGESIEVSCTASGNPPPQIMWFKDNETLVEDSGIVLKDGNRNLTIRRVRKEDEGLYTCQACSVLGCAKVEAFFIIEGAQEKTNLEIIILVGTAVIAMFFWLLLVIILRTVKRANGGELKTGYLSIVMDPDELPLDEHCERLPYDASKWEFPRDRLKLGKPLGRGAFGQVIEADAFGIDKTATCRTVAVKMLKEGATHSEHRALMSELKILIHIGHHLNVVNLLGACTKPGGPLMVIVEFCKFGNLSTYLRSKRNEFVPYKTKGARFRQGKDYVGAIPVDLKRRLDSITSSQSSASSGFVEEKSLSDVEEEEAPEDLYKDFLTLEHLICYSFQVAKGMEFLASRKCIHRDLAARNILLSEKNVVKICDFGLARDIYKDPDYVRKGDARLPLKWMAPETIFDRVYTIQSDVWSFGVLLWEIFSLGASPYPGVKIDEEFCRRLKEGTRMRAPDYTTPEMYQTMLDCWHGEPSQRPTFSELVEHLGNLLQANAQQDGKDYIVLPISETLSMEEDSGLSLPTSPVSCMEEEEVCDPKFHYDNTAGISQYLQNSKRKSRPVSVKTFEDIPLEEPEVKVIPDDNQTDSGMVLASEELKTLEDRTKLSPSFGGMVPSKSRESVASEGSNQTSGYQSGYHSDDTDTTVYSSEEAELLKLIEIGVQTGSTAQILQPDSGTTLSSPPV", "experiment": "Cellular thermal shift assay (target engagement) in intact HUVECs", "assay_type": "binding", "set-up": "stabilize the target in intact HUVECs; endogenous in cells; host or cells: primary HUVECs (passages 3-8)", "details": "40 μM, 3 h, 40-49°C", "method": "Then we investigate whether YLT192 bind to VEGFR2 in intact HUVECs. If VEGFR2 is bound by YLT192, it will be stabilized by the physical engagement.\nThe ability of YLT192 to interact with, and thereby stabilize the target in intact HUVECs, was evaluated as described by Molina et al.[22] with some modifications. Briefly, subconfluent HUVECs were incubated with 40 μM YLT192 or vehicle for 3 h. Then the cells were detached with trypsin and collected in TBS containing complete protease inhibitor cocktail. The cells were divided into 4 aliquots and heated individually at 40, 43, 46, 49°C for 3 minutes. Subsequently, the cell suspensions were freeze-thawed three times using liquid nitrogen. Soluble proteins were separated from the precipitated fraction by centrifugation at 17,000 g for 20 min. The proteins were then detected with immunoblot analysis using the VEGFR2-antibody."}, "[3]": {"test_system": "HCT116 cells", "experiment": "Western blot of oncogenic signaling pathways", "assay_type": "cell-based, human", "details": "48 h", "method": "(§1) Figure 4 Inhibitory effects of YLT192 on tumor cells. (A) YLT192 inhibited U251 and HCT116 cells proliferation. The EdU incorporation assay was conducted on U251 and HCT116 cells after treated with YLT192 for 24 hours. The EdU-positive (red fluorescent staining) cells and Hoechst staining (blue fluorescent staining) cells represented proliferating and total cells in the fluorescent images, respectively (100×). Quantification was shown on the right panels. (B) YLT192 induced apoptosis of HCT116 cells. HCT116 cells were treated with YLT192 or vehicle for 48 hours followed by flow cytometric analysis of annexin V-FITC and PI staining. […] Typical apoptosis-related proteins caspase 3 and Bax were detected by western blot. […] U251 and HCT116 cells were treated with YLT192 or vehicle for 48 hours and the expression of protein in different signaling pathways were detected by western blot with specific antibodies. […]\n(§2) To gain further insight into the molecular mechanism of the inhibitory effects of YLT192 on tumor cells we evaluated the expression of p44/42 MAPK, STAT3, AKT, and mammalian target of rapamycin (mTOR) in U251 and HCT116 cells 48 h after treatment.\n(§3) Supplementary Figure S8. […] U251 and HCT116 cells were treated with YLT192 or vehicle for 48 hours and the expression of protein in different signaling pathways were detected by western blot with specific antibodies. […]"}, "[4]": {"test_system": "U251 cells", "experiment": "Western blot of oncogenic signaling pathways", "assay_type": "cell-based, human", "details": "48 h", "method": "as §1, §2, §3"}},
  "data": [
    {"smiles": "CNC(=O)c1cc(Oc2ccc(NC(=O)c3cccc(OC)c3)cc2)ccn1", "note": "[YLT192]", "values": [
      {"measurement": "apoptosis in HCT116 cells", "setting": "[1]", "result": "increased apoptosis"},
      {"measurement": "thermal stabilization of VEGFR2", "setting": "[2]", "result": "efficiently stabilized VEGFR2"},
      {"measurement": "expression of phosphorylated p44/42 MAPK, STAT3, AKT, and mTOR", "setting": "[3]", "result": "dramatically decreased"},
      {"measurement": "expression of phosphorylated p44/42 MAPK, STAT3, AKT, and mTOR", "setting": "[4]", "result": "dramatically decreased"}
    ]}
  ]
}
